Test results taken from patent US6235736A, “3-anilino-2-cycloalkenone derivatives” (Nikken Chemicals Co., Ltd., priority 1997, dated 2001).

How the values were obtained:
[1] = tested on: Type IV PDE; test: PDE IV inhibitory activity (isozyme partially purified from rat neutrophils, 3H-cAMP substrate); assay type: biochemical; settings: rat neutrophil PDE IV, 30° C., 30 minutes, read-out: PDE IV inhibiting action IC50
Method: Type I, III, IV, and V PDE isozymes were prepared to study the PDE inhibitory activities of and selectivities with the compound of the invention [Trends Pharmacol Sci., 12, 19-27 (1991)]. Type I PDE was purchased from Sigma Corp. Type III, IV, and V PDE isozymes were partially purified from platelets (Type III and V) or neutrophils (Type IV) collected from rats. Each enzyme source was homogenized in a buffer (pH 6.5) containing 20 mM bisTris, 2 mM EDTA (i.e., ethlenediamine tetraacetate), 2-mercaptoethanol, 0.001 mM pepstatin and 0.01 mM leupeptin and was centrifuged at 30000×G for 30 minutes to obtain a supernatant, which was applied to an ion exchange column (Q-sepharose first flow, Pharmacia Corp.) and was eluted with 0 to 1M sodium acetate. Partially purified isozymes were identified by observing the inhibitory effects of conventional inhibitors.
Each PDE isozyme and the test compound dissolved in DMSO (i.e., dimethylsulfoxide) were added to 50 mM Tris--HCI buffer containing 5 mM magnesium chloride. ^3 H-cAMP (for type III and IV PDE) or ^3 H-cGMP (for type I and V PDE) were added as substrates and were reacted at 30° C. for 30 minutes. The reaction was terminated by placing the test tube in boiling water of 100° C. for 5 minutes. The nucleotides formed by PDE were broken down to ^3 H-adenosine or ^3 H-guanosine by 5'-nucleotidase. The substrate and reaction product were separated through an ion-exchange column (i.e., QAE sephadex, Pharmacia Corp.)
The eluted ^3 -H-nucleoside was measured for its radioactivity by a liquid scintillation counter. The inhibitory activities of the compound of the present invention are shown by the IC50 value (M). Further, the inhibitory activities of the test samples against type I, III, and V PDE are 1/10 or less than that against Type IV PDE.

[2] = tested on: rat neutrophils; test: Inhibition of superoxide anion release from rat neutrophils (chemiluminescence); assay type: cell-based; settings: Neutrophil, stimulated with 0.3 micro M A23187, read-out: Action suppressing release of superoxide anions from rat neutrophils IC50
Method: The release of super oxide anions was measured so as to study the inhibitory effects of the compound of the present invention on inflammatory leukocytes, that is, neutrophils.
Blood sample was collected from Wister rats anestetized with ether. It was superposed on a blood cell separation solution (Polymorphoprep 1.113, Naicomed Farm) and the neutrophils were separated by centrifugation. The neutrophils were resuspended in a Hank's balanced salt solution at a concentration of 0.5×10^4 cells/ml. 0.1 mM of lusigenin and the test substance dissolved in DMSO were added to 2 ml of the cell suspension. The chemiluminescence generated by stimulation of 0.3 maicro M calcium ionophore A23187 was measured by a chemiluminescence reader so as to evaluate the release of super oxide anions.

[3] = tested on: antigen-induced bronchoconstriction in guinea-pig; test: Inhibitory effect on antigen-induced bronchospasm (anti-asthmatic action); assay type: in vivo, guinea-pig (Hartley male); settings: Cavia porcellus; intravenous, 10 minutes before 0.2 mg/kg OA challenge; read-out: Action suppressing antigen induced bronchoconstriction ED50
Method: Hartley male guinea-pig was sensitized by intramuscular administration of 35 mg Ovalbumin (OA) at first day and fourth day. After 25 to 29 days of first sensitization, trachial canula was introduced in the guinea pig anesthetized with pentobarbital and artificial ventilation was performed. The overflow of the ventilation was measured by the Konzett Roessler method while 0.2 mg/kg OA were administered intravenously. The test compound was dissolved in polyethylene glycol 400 and intravenously administered 10 minutes before OA challenge.

[4] = tested on: TPA induced ear edema in mouse; test: TPA induced mouse ear edema assay; assay type: in vivo, mouse (male ICR); settings: 0.1 mg applied to right ear immediately after TPA; 6 hour
Method: Male ICR mice, 5 week old, were divided into groups of seven to eight. 2 μg of TPA (phorbor 12-ministate; Sigma Co.) in 20 μl acetone was applied to the inner and outer surface of right ear of each mouse to cause a reaction. 0.1 mg of compound was dissolved in 20 μl of a tetrahydrofuran-methanol mixture (mixture ratio 1:1) and the solution (20 μl) applied to the right ear immediately after TPA treatment. After 6 hour, the animals were sacrificed and right ear was punched out (.phi. […]) and weighed. The effect of comppund.was calculated as % inhibition as follows: [formula]

[5] = tested on: DNFB contact-type dermatitis in mouse; test: Allergic contact dermatitis assay (DNFB); assay type: in vivo, mouse (ICR male); settings: applied 1 hour before and 5 hours after inducing ear edema; 24 hours
Method: 8 to 9 week old ICR type male mice were divided into groups of 8 to 9 each for use. The shaved skin of the ventral surface of each of the mice was applied with a 0.5% DNFB (2,4-dinitrofluorobenzene)acetone-olive oil solution (v/v=4/1) in an amount of 25 μl/day over 2 days to sensitize it. Four days after the second day of sensitization, a 0.2% DNFB acetone-olive oil solution was applied to the ear in an amount of 25 μl to induce contact-type dermatitis. After 24 hours, the thickness of the ear was measured using a dial thickness gauge and the difference with the value before inducing the edema was found. The test compound was dissolved in 25 μl of tetrahydrofuran-methanol (mixture ratio 1:1) and applied two time, that is, 1 hour before inducing the ear edema and 5 hours after it.
In Table 6, the effect of the compound was expressed by the ED50.

[6] = tested on: type IV PDE; settings: background art (Kokai No. 50-157360); cited from earlier work

IC50 [1]	IC50 [2]	SMILES	ED50 [3]	% Inhibition of ear edema [4]	ED50 (allergic contact dermatitis, ear edema) [5]	specific inhibitory activity against type IV PDE (in words) [6]
1300 nM	140 nM	COc1ccc(NC2=CC(=O)CC2)cc1O[C@@H]1C[C@H]2CC[C@@H]1C2 (racemic) [Compound No. 8, 3-[3-[(1RS,2RS,4SR)-bicyclo[2.2. 1]hept-2-yloxy]-4-methoxyanilino]-2-cyclopenten-1-one]	3 mg/kg	73.1%		
2400 nM	190 nM	COc1ccc(NC2=CC(=O)NCC2)cc1O[C@H]1C[C@@H]2CC[C@H]1C2 (relative stereo) [Compound No. 23]		73.0%		
1600 nM	120 nM	COc1ccc(NC2=CC(=O)CC2)cc1OC1CCCC1 [Compound No. 1, 3-(3-cyclopentyloxy-4-methoxyanilino)-2-cyclopenten-1-one]	1.4 mg/kg	68.2%		
690 nM		COc1ccc(NC2=CC(=O)CC2)cc1OC1Cc2ccccc2C1 [Compound No. 9, 3-[3-(2-indanyloxy)-4-methoxyanilino]-2-cyclopenten-1-one]	5.5 mg/kg	72.3%	94 μg/site	
140 nM		COc1ccc(NC2=C(C)C(=O)CC2)cc1OC1Cc2ccccc2C1 [Compound No. 10, 3-[3-(2-indanyloxy)-4-methoxyanilino]-2-methyl-2-cyclopenten-1-one]	0.86 mg/kg			
2400 nM		COc1ccc(NC2=C(C)C(=O)CC2)cc1OC1CCCCC1 [Compound No. 14, 3-(3-cyclohexyloxy-4-methoxyanilino)-2-methyl-2-cyclopenten-1-one]		73.4%	16 μg/site	
1100 nM	410 nM	COc1ccc(NC2=CC(=O)NCC2)cc1OC1CCCC1 [Compound No. 21, 4-(3-cyclopentyloxy-4-methoxyanilino)-1,2,5,6-tetrahydropyridin-2-one]	1 mg/kg			
24000 nM	3300 nM	COc1ccc(NC2=CC(=O)N(Cc3ccccc3)CC2)cc1OC1CCCC1 [Compound No. 22, 1-benzyl-4-(3-cyclopentyloxy-4-methoxyanilino)-1,2,5,6-tetrahydropyridin-2-one]		76.8%	32 μg/site	
50 nM		CCC1=C(Nc2ccc(OC)c(OC3Cc4ccccc4C3)c2)CCC1=O [Compound No. 32, 2-ethyl-3-[3-(2-indanyloxy)-4-methoxyanilino]-2-cyclopenten-1-one]	7.34 mg/kg	75.5%		
570 nM		COc1ccc(N(Cc2ccccc2)C2=CC(=O)CCC2)cc1OC1Cc2ccccc2C1 [Compound No. 66, 3-[N-benzyl-3-(2-indanyloxy)-4-methoxyanilino]-2-cyclohexen-1-one]		72.8%		
3800 nM		COc1ccc(N(Cc2ccc3ccccc3c2)C2=CC(=O)CCC2)cc1OC1Cc2ccccc2C1 [Compound No. 67, 3-[3-(2-indanyloxy)-4-methoxy-N-(2-naphthylmethyl)anilino]-2-cyclohexen-1-one]		60.8%		
490 nM		COc1ccc(N(Cc2ccccn2)C2=CC(=O)CCC2)cc1OC1Cc2ccccc2C1 [Compound No. 68, 3-[3-(2-indanyloxy)-4-methoxy-N-(2-pyridylmethyl)anilino]-2-cyclohexen-1-one]		52.0%		
3200 nM		COc1ccc(N(Cc2ccncc2)C2=C(C)C(=O)CC2)cc1OC1Cc2ccccc2C1 [Compound No. 73, 3-[3-(2-indanyloxy)-4-methoxy-N-(4-pyridylmethyl)anilino]-2-methyl-2-cyclopenten-1-one]		54.3%		
470 nM		COc1ccc(NC2=C(C)C(=O)CCC2)cc1OC1CCCC1 [Compound No. 75, 3-(3-cyclopentyloxy-4-methoxyanilino)-2-methyl-2-cyclohexen-1-one]		64.8%		
130 nM		COc1ccc(N(C)C2=CC(=O)CC2)cc1OC1Cc2ccccc2C1 [Compound No. 76]		52.7%		
910 nM		COc1ccc(N(Cc2ccccc2)C2=CC(=O)CC2)cc1OC1Cc2ccccc2C1 [Compound No. 77, 3-[N-benzyl-3-(2-indanyloxy)-4-methoxyanilino]-2-cyclopenten-1-one]		50.9%		
1300 nM		COc1ccc(N(Cc2ccncc2)C2=CC(=O)CC2)cc1OC1Cc2ccccc2C1 [Compound No. 78, 3-[3-(2-indanyloxy)-4-methoxy-N-(4-pyridylmethyl)anilino]-2-cyclopenten-1-one]		82.2%		
730 nM		COc1ccc(N(Cc2ccc3ccccc3c2)C2=CC(=O)CC2)cc1OC1Cc2ccccc2C1 [Compound No. 79, 3-[3-(2-indanyloxy)-4-methoxy-N-(2-naphthylmethyl)anilino]-2-cyclopenten-1-one]		89.0%		
120 nM		COc1ccc(N(Cc2ccc3ccccc3n2)C2=CC(=O)CC2)cc1OC1Cc2ccccc2C1 [Compound No. 80, 3-[3-(2-indanyloxy)-4-methoxy-N-(2-quinolylmethyl)anilino]-2-cyclopenten-1-one]		64.4%		
		COc1ccc(C2CNC(=O)C2)cc1OC1CCCC1 (stereo not drawn) [Rolipram]				specific inhibitory activity against type IV PDE
